Measurements taken from patent publication US6740670B2, “Thiazolidine derivatives and its use as antifungal agent” (Oxford Glycosciences (UK) Ltd., priority 2000, dated 2004).

Tests used:
[1] = tested on: Candida albicans (strain SC5314); assay: G418 sensitivity assay; format: cell-based; conditions: G418 100 μg/ml, overnight at 37° C., OD600 nm, concentration giving 50% reduction in cell growth relative to culture with G418 alone
Method: This assay is based upon the observed increased sensitivity of the pmt1−/− Candida strain to Geneticin (G418) (6). 100 μl of a 0.1OD600 nm culture of Candida albicans (strain SC5314) is placed into a 96 well plate in the presence or absence of varying concentrations of test compound. The compounds are initially dissolved in DMSO and added to the cultures at a final DMSO concentration of 1%. G418 is added to a final concentration of 100 μg/ml. In the absence of PMT1 inhibition, this concentration of G418 has no effect on the proliferation of the organism. The cultures are grown overnight at 37° C. and cell density is then estimated by an OD600 nm measurement. The effect of the test compound is calculated as the concentration that gives a 50% reduction in cell growth relative to the culture with G418 alone.

[2] = target: T1, Candida albicans PMT-1 enzyme (Candida albicans, UniProt O74189); assay: PMT-1 assay; format: biochemical; conditions: Candida albicans membrane protein, peptide DYATAV, dolicholphospho-[3H]-mannose, 60 minutes at 25° C., pH 8.0; read-out: PMT-1 Inhibition (IC50)
T1 construct: 25 μg of Candida albicans membrane protein; endogenous in cells
T1 sequence (O74189 1-877): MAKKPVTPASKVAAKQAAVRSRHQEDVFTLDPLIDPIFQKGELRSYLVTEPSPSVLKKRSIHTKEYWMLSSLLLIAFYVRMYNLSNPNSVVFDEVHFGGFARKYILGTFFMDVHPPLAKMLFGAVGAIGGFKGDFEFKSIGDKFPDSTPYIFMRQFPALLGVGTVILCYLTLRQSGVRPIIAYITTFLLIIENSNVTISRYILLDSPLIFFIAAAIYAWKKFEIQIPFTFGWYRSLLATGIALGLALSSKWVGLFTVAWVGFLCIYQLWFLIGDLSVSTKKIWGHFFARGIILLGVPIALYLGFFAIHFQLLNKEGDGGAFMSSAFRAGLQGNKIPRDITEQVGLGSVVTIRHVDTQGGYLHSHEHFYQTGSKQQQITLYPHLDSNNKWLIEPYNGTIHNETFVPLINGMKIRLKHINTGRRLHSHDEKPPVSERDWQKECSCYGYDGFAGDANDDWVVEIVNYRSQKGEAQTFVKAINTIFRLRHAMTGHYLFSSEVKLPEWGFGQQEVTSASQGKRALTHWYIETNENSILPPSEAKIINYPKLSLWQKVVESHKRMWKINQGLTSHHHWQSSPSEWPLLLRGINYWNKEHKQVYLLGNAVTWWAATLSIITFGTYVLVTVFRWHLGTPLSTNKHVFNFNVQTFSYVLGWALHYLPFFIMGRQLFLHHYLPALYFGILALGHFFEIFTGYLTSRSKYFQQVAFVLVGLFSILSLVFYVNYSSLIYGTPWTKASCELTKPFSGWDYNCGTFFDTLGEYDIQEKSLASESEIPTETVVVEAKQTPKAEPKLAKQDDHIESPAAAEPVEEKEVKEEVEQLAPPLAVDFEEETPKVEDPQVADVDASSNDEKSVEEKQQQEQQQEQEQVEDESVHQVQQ
Method: The assay method is based upon the transfer of a radiolabelled mannose moiety from dolicholphosphomannose onto a threonine hydroxyl residue in a short peptide, as catalysed by the Candida albicans PMT-1 enzyme. Dolicholphospho-[^3H]-mannose is synthesised enzymatically from GDP-[^3H]-mannose and purified by chloroform: methanol extraction.
100000 Dpm of the generated substrate is incubated with 400 μg phosphatidylcholine, 25 μg of peptide (DYATAV) and 25 μg of Candida albicans membrane protein in a final volume of 50 μl in 100 mM Tris/1 mM MgCl2 buffer, pH 8.0. After 60 minutes at 25° C., the reaction is stopped with 50 μl of methanol. The unreacted radiolabel is removed by the addition of 150 μl of 0.4 g/ml octadecyl-functionalised silica (C18) in methanol. The C18 material is removed by centrifugation and the activity transferred to the peptide is counted in the supernatant.

SMILES | IC50 [1] | IC50 [2] | melting point
CCCCCN(CCCCC)C(=O)c1cc(/C=C2\SC(=S)N(CC(=O)O)C2=O)ccc1OCc1ccccc1 [Example 34, 5-[[[3-(N,N-Dipentylamino)carbonyl-4-(phenylmethoxy)]-phenyl]methylene]-4-oxo-2-thioxo-3-thiazolidineacetic acid] | 1500 nM | 2500 nM | 
C[C@@H](c1ccccc1)N(Cc1ccccc1)C(=O)c1cc(/C=C2\SC(=S)N(CC(=O)O)C2=O)ccc1OCc1ccccc1 [Example 35, 5-[[[3-((S)-N-Benzyl-N-alpha-methylbenzylamino)carbonyl-4-(phenyl-methoxy)]-phenyl]methylene]-4-oxo-2-thioxo-3-thiazolidineacetic acid] | 650 nM | 600 nM | 204 to 209 °C
CCCCCN(CCCCC)C(=O)c1cc(/C=C2\SC(=S)N(CC(=O)O)C2=O)ccc1OCc1ccc(F)cc1F [Example 49, 5-[[[3-(N,N-Dipentylamino)carbonyl-4-[(2,4-difluorophenyl)-methoxy]]phenyl]methylene]-4-oxo-2-thioxo-3-thiazolidineacetic acid] | 700 nM | 700 nM | 
